Structures can show the parent of a compound that is named as a salt.
Experiments:
TBK1 = target: T1, TBK1 (Homo sapiens, UniProt Q9UHD2); experiment: TBK Biochemical Assay; details: read-out: TBK1 IC50
T1 sequence (Q9UHD2 1-729): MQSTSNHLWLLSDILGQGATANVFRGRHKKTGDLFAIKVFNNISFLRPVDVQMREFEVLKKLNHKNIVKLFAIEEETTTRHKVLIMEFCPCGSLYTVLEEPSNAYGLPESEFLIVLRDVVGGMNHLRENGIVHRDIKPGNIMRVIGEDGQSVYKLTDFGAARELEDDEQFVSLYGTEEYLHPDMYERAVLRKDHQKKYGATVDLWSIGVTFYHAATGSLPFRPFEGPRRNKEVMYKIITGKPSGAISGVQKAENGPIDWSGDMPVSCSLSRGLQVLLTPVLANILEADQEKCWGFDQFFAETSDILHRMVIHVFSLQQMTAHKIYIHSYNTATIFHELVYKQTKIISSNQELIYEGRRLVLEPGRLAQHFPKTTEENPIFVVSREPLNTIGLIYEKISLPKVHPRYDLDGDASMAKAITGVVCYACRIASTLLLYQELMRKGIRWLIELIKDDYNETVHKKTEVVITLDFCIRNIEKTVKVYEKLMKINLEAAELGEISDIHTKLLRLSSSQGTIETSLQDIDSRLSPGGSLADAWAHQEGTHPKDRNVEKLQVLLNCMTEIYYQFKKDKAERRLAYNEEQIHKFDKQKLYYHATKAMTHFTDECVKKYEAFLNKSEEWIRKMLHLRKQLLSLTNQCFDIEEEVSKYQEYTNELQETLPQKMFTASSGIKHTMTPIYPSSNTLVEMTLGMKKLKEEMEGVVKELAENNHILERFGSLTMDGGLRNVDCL
In short: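 Caliper LabChip mobility-shift readout of substrate and product after 90 min of TBK1 reaction at 25° C and stop-buffer addition. Compounds tested in 1:4 serial dilution over 10 points from 30 uM final at 1% DMSO; staurosporine 10 uM final defines full inhibition.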

IKKε = target: T2, IKKε (Homo sapiens, UniProt Q14164); experiment: IKKe Biochemical Assay; details: read-out: IKKε IC50
T2 sequence (Q14164 1-716): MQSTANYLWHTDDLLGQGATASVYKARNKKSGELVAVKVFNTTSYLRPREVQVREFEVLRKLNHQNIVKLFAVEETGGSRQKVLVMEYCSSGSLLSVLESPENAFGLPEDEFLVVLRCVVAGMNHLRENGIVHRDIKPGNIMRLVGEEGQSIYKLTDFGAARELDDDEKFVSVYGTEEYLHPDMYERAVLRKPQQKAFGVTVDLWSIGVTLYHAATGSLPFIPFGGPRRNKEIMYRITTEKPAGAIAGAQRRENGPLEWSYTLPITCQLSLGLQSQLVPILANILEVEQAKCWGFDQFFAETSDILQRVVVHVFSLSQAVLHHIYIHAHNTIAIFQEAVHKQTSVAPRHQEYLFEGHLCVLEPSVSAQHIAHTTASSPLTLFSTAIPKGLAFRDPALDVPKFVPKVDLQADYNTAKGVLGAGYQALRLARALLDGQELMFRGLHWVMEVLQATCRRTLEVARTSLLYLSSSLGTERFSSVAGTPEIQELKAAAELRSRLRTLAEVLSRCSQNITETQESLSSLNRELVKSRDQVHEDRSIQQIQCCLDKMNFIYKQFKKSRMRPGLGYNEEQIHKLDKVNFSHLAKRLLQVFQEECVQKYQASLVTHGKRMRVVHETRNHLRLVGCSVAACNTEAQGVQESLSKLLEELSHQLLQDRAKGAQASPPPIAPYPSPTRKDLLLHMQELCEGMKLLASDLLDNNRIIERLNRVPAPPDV
In short: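 Activity was measured as mobility-shift separation of phosphorylated from unphosphorylated substrate on a LabChip EZ Reader. Compound was titrated from 30 uM final in 10 points, 1:4 steps, with 1% DMSO, and enzyme plus substrate reacted 90 min at 25° C before stop buffer. Control wells held 10 uM staurosporine.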

[1] = tested on: phosphorylation of the IRF-3 protein in MDA-MB-468 cells; experiment: pIRF3 immunocytochemistry cell based assay; details: Homo sapiens; MDA-MB-468 cells, Poly(I:C) stimulation; read-out: pIRF3 IC50
In short: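 After 2 h stimulation with Poly(I:C) (10 ug/ml), following 1 h compound pre-treatment (10-point, 3-fold dilution, top 10 uM), MDA-MB-468 cells were fixed and stained with anti-pIRF3 antibody. pIRF3 fluorescence was normalized to PI staining or cell count on an Acumen cytometer. IC50 curves were derived from this.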

Row | Compound | IC50 (TBK1) [nM] | IC50 (IKKε) [nM] | IC50 [1] [nM]
1 | COc1cc(C(=O)N(C)C)ccc1-c1cc2nccc(-c3ccc(NC4CCOCC4F)c(C#N)c3)c2o1 (stereo not drawn) [Compound 78] | < 100 | < 100 | 100 to 1000
2 | COc1cc(C(=O)NC2CN3CCC2CC3)ccc1-c1cc2nccc(-c3ccc(OC4CCOCC4)c(C#N)c3)c2o1 (stereo not drawn) [Compound 79, N-(1-Aza-bicyclo[2.2.2]oct-3-yl)-4-{7-[3-cyano-4-(tetrahydro-pyran-4-yloxy)-phenyl]-furo[3,2-b]pyridin-2-yl}-3-methoxy-benzamide] | < 100 | < 100 | 100 to 1000
3 | COc1cc(C(=O)N(C)C)ccc1-c1cc2nccc(-c3ccc(NC4CCOCC4O)c(C#N)c3)c2o1 (stereo not drawn) [Compound 82] | < 100 | < 100 | 100 to 1000
4 | COc1cc(C(=O)NC2CN3CCC2CC3)ccc1-c1cc2nccc(-c3ccc(N4CCC(F)C4)c(C#N)c3)c2o1 (stereo not drawn) [Compound 87, N-(1-Aza-bicyclo[2.2.2]oct-3-yl)-4-{7-[3-cyano-4-(3-fluoro-pyrrolidin-1-yl)-phenyl]-furo[3,2-b]pyridin-2-yl}-3-methoxy-benzamide] | < 100 | < 100 | 100 to 1000
5 | COc1cc(C(=O)N(C)C)ccc1-c1cc2nccc(-c3ccc(OC4CCOC4)c(C#N)c3)c2o1 (stereo not drawn) [Compound 90, 4-{7-[3-Cyano-4-(tetrahydro-furan-3-yloxy)-phenyl]-furo[3,2-b]pyridin-2-yl}-3-methoxy-N,N-dimethyl-benzamide] | < 100 | < 100 | 100 to 1000
6 | COc1cc(C(=O)N2CCC(O)C2)ccc1-c1cc2nccc(-c3ccc(NC4CCOCC4)c(C#N)c3)c2o1 (stereo not drawn) [Compound 104, 5-{2-[4-(3-Hydroxy-pyrrolidine-1-carbonyl)-2-methoxy-phenyl]-furo[3,2-b]pyridin-7-yl}-2-(tetrahydro-pyran-4-ylamino)-benzonitrile] | < 100 | < 100 | 100 to 1000
7 | COc1cc(C(=O)N(C)C)ccc1-c1cc2nccc(-c3ccc(OC4CCCOC4)c(C#N)c3)c2o1 (stereo not drawn) [Compound 105, 4-{7-[3-Cyano-4-(tetrahydro-pyran-3-yloxy)-phenyl]-furo[3,2-b]pyridin-2-yl}-3-methoxy-N,N-dimethyl-benzamide] | < 100 | < 100 | 100 to 1000
8 | CN(C)C(=O)c1ccc(-c2cc3nccc(-c4ccc(N5CC[C@H](F)C5)c(C#N)c4)c3o2)cc1 [Compound 106, 4-{7-[3-Cyano-4-((S)-3-fluoro-pyrrolidin-1-yl)-phenyl]-furo[3,2-b]pyridin-2-yl}-N,N-dimethyl-benzamide] | < 100 | < 100 | 100 to 1000
9 | COc1cc(C(=O)N(C)C)ccc1-c1cc2nccc(-c3cnc(OC4CCOCC4)c(C#N)c3)c2o1 [Compound 109, 4-{7-[5-Cyano-6-(tetrahydro-pyran-4-yloxy)-pyridin-3-yl]-furo[3,2-b]pyridin-2-yl}-3-methoxy-N,N-dimethyl-benzamide] | < 100 | < 100 | 100 to 1000

Second part, the molecule after the results:

Row | IC50 (TBK1) [nM] | IC50 (IKKε) [nM] | IC50 [1] [nM] | Compound
10 | < 100 | < 100 | 100 to 1000 | COc1cc(C(=O)N2CCC(CO)C2)ccc1-c1cc2nccc(-c3ccc(N4CC[C@H](F)C4)c(C#N)c3)c2o1 (stereo partly drawn) [Compound 76, 2-((S)-3-Fluoro-pyrrolidin-1-yl)-5-{2-[4-(3-hydroxymethyl-pyrrolidine-1-carbonyl)-2-methoxy-phenyl]-furo[3,2-b]pyridin-7-yl}-benzonitrile]
11 | < 100 | < 100 | 100 to 1000 | COc1cc(C(=O)N2CC(F)(F)C2)ccc1-c1cc2nccc(-c3ccc(OC4CCOCC4)c(C#N)c3)c2o1 [Compound 77, 5-{2-[4-(3,3-Difluoro-azetidine-1-carbonyl)-2-methoxy-phenyl]-furo[3,2-b]pyridin-7-yl}-2-(tetrahydro-pyran-4-yloxy)-benzonitrile]
12 | < 100 | < 100 | 100 to 1000 | COc1cc(C(=O)NOC2COC2)ccc1-c1cc2nccc(-c3ccc(OC4CCOCC4)c(C#N)c3)c2o1 [Compound 80, 4-{7-[3-Cyano-4-(tetrahydro-pyran-4-yloxy)-phenyl]-furo[3,2-b]pyridin-2-yl}-3-methoxy-N-(oxetan-3-yloxy)-benzamide]
13 | < 100 | < 100 | 100 to 1000 | COc1cc(C(=O)NC2C3CNCC32)ccc1-c1cc2nccc(-c3ccc(OC4CCOCC4)c(C#N)c3)c2o1 (stereo not drawn) [Compound 84, N-(3-Aza-bicyclo[3.1.0]hex-6-yl)-4-{7-[3-cyano-4-(tetrahydro-pyran-4-yloxy)-phenyl]-furo[3,2-b]pyridin-2-yl}-3-methoxy-benzamide hydrochloride]
14 | < 100 | < 100 | 100 to 1000 | COc1cc(C(=O)O)ccc1-c1cc2nccc(-c3ccc(NC4CCOCC4)c(C#N)c3)c2o1 [Compound 88]
15 | < 100 | < 100 | 100 to 1000 | COc1cc(C(=O)N2CCC(CO)C2)ccc1-c1cc2nccc(-c3ccc(NC4CCOCC4)c(C#N)c3)c2o1 (stereo not drawn) [Compound 91, 5-{2-[4-(3-Hydroxymethyl-pyrrolidine-1-carbonyl)-2-methoxy-phenyl]-furo[3,2-b]pyridin-7-yl}-2-(tetrahydro-pyran-4-ylamino)-benzonitrile]
16 | < 100 | < 100 | 100 to 1000 | COc1cc(C(=O)NCC2CCNCC2)ccc1-c1cc2nccc(-c3ccc(OC4CCOCC4)c(C#N)c3)c2o1 [Compound 92, 4-{7-[3-Cyano-4-(tetrahydro-pyran-4-yloxy)-phenyl]-furo[3,2-b]pyridin-2-yl}-3-methoxy-N-piperidin-4-ylmethyl-benzamide hydrochloride]
17 | < 100 | < 100 | 100 to 1000 | COc1cc(C(=O)N(C)C)ccc1-c1cc2nccc(-c3ccc(OCC4CCOC4)c(C#N)c3)c2o1 (stereo not drawn) [Compound 93, 4-{7-[3-Cyano-4-(tetrahydro-furan-3-ylmethoxy)-phenyl]-furo[3,2-b]pyridin-2-yl}-3-methoxy-N,N-dimethyl-benzamide]
18 | < 100 | < 100 | 100 to 1000 | COc1cc(C(=O)NC2CNCC(F)(F)C2)ccc1-c1cc2nccc(-c3ccc(OC4CCOCC4)c(C#N)c3)c2o1 (stereo not drawn) [Compound 98, 4-{7-[3-Cyano-4-(tetrahydro-pyran-4-yloxy)-phenyl]-furo[3,2-b]pyridin-2-yl}-N-(5,5-difluoro-piperidin-3-yl)-3-methoxy-benzamide hydrochloride]
19 | < 100 | < 100 | 100 to 1000 | COc1cc(C(=O)N2CC(O)C2)ccc1-c1cc2nccc(-c3ccc(NC4CCOCC4)c(C#N)c3)c2o1 [Compound 101, 5-{2-[4-(3-Hydroxy-azetidine-1-carbonyl)-2-methoxy-phenyl]-furo[3,2-b]pyridin-7-yl}-2-(tetrahydro-pyran-4-ylamino)-benzonitrile]
20 | < 100 | < 100 | < 100 | COc1cc(C(=O)N(C)C)ccc1-c1cc2nccc(-c3ccc(OC4CCNC4)c(C#N)c3)c2o1 (stereo not drawn) [Compound 108, 4-{7-[3-Cyano-4-(pyrrolidin-3-yloxy)-phenyl]-furo[3,2-b]pyridin-2-yl}-3-methoxy-N,N-dimethyl-benzamide]
